Measurements reported in publication PMC9050161 (RSC Advances, 2020).

Tests used:
[1] = Chemical inhibition assay, glucuronidation of PI-103 in pooled HLM; type: in vitro ADME, human
[2] = Chemical inhibition assay, phase I metabolism of PI-103 in pooled HLM; type: in vitro ADME, human; settings: inhibitor 0.1 μM (CYP1A2 inhibitor)

Row | Structure (SMILES) | activity of PI-103 glucuronidation in HLM ([1]; inhibitor 10 μM) | also measured
1 | C[C@]12CC[C@@H](O)C[C@@H]1CC[C@@H]1[C@@H]2CC[C@]2(C)C(=O)CC[C@@H]12 [androsterone] | 69.36 % of the control values | –
2 | O=c1cc(-c2ccccc2)oc2c1ccc1ccccc12 [α-naphthoflavone] | – | remaining activity of PI-103 phase I metabolism in HLM [2]: 53.37 % of the control values
3 | Cc1cn(-c2cc(NC(=O)c3ccc(C)c(Nc4nccc(-c5cccnc5)n4)c3)cc(C(F)(F)F)c2)cn1 [nilotinib] | 82.37 % of the control values | –
4 | C[C@H](CCC(=O)O)[C@H]1CC[C@H]2[C@@H]3[C@H](O)C[C@@H]4C[C@H](O)CC[C@]4(C)[C@H]3CC[C@]12C [CDCA] | – | activity of PI-103 glucuronidation in HLM ([1]; inhibitor 20 μM): no changes
5 | CN(C)CCC=C1c2ccccc2CCc2ccccc21 [amitriptyline] | no changes | –
